{"source": "patent US20030004131A1", "about": "“OENOTHEIN MEDICAMENTS” (priority 1999, published 2003)", "key": {"[1]": {"system": "hen's-egg chorioallantoic membrane (CAM)", "test": "hen's-egg chorioallantoic membrane (CAM) irritation model with 15% lactic acid as standard irritant", "format": "in vivo", "settings": "CAM treated with 15% lactic acid; sample applied before the irritant (prophylactic use); oenothein-B tested at 1% (weight to volume) dilution", "method": "In the hen's-egg chorioallantoic membrane (CAM) model, in which the CAM is treated with 15% lactic acid as a standard irritant, the development of manifestations of membrane irritation were tracked and scored according to published methods for assessing irritancy (Luepke and Kemper, 1986, Food and Chemical Toxicology 24:495; Spielmann et al. 1997, Food and Chemical Toxicology 35:39). A sample of the oenothein-B extract from Canadian Willowherb described in Example 1 was tested at a 1% (weight to volume) dilution for activity in the CAM model."}, "[2]": {"test": "xanthine oxidase/acetaldehyde spectrophotometric superoxide radical scavenging method", "format": "biochemical", "method": "The scavenging of free superoxide radicals is quantitated spectrometrically and expressed in terms of percentage of radicals scavenged. Assays were performed with 1% (w/v) and 0.1% (w/v) dilutions of the dried extract, which yielded up to 100% scavenging activity and up to 99% scavenging activity respectively."}}}
{"substance": "oenothein-B", "values": [{"measurement": "decrease in irritation", "setting": "[1]", "result": "up to 70%"}, {"measurement": "scavenging activity (percentage of radicals scavenged)", "setting": "[2]; 0.1% (w/v) dilution of the dried extract", "result": "up to 99%"}, {"measurement": "scavenging activity (percentage of radicals scavenged)", "setting": "[2]; 1% (w/v) dilution of the dried extract", "result": "up to 100%"}]}
